In patent publication US10328051B2, “Proline or proline derivatives for the treatment of dementia” (priority 2014, dated 2019):

Key:
[1] = Multiple dose ascending bioavailability and safety study (Phase I) with oral CHP (Study 0202-71); format: in vivo, human
Description: Example 5—Study Title: Multiple Dose Ascending Bioavailability and Safety Study Phase 1 with Oral CHP-GALMED Study No: 0202-71
12 healthy Caucasian males were recruited (age: 18-45 years).
Multiple doses of CHP were orally administered: • 4×2.0 g CHP per day, for 14 consecutive days (total daily dose=8.0 g CHP) • 4×3.0 g CHP per day, for 14 consecutive days (total daily dose=12.0 g CHP) Each dose level was administered to all volunteers.
Objectives • To determine the pharmacokinetic parameters and safety of CHP and THP in plasma following oral administration of multiple doses of 8 g CHP (4×2 g) and 12 g CHP (4×3 g)—4× daily, τ=6 h, respectively, in 12 healthy subjects on Day 1 and Day 14. • To model and simulate plasma concentrations of CHP and THP during Days 1 to 14.

[2] = Single ascending oral doses of CHP (Study 1001-68) and single IV dose (Study 0302-72): pharmacokinetics and safety in healthy volunteers; format: in vivo, human; conditions: healthy subjects
Text: study title Safety, tolerability and pharmacokinetic profile of single ascending doses of oral cis-4-hydroxy-L-proline (CHP) in healthy volunteers Galmed study no. 1001-68-. Results FIGS. 3 and 4.
Study title: Single Dose Absolute Bioavailability (intravenous IV solution) and Safety Study of CHP in Healthy Volunteers-GALMED Study No: 0302-72. Results are in (FIGS. 5 and 6)
Six healthy volunteers (male, caucasian—18-45 years old) were recruited from the GCP-Galmed clinical centre. All healthy volunteers provided written informed consent prior to study participation. The study was approved by the independent Ethical Committee.
All volunteers were orally administered 2, 4, 6, 8, 10 and 12 grams of CHP with a wash out period of at least one week between doses of CHP.
The following blood and urine samples were collected for determination of the pharmacokinetics parameters of CHP and THP:
10 hours and immediately prior to administration of CHP (0 Hour), and at 0.25, 0.5, 1, 1.5, 2, 2.5, 3, 4, 5, 6, 12 and 24 hours after administration of CHP.
Urine was collected for the determination of the CHP and THP concentrations and the calculation of the elimination parameters of CHP and THP.
Six healthy volunteers (male, caucasian—18-45 years old) were recruited from the GCP-Galmed clinical centre. All healthy volunteers provided written informed consent prior to study participation. The study was approved by the independent Ethical Committee. Single doses of CHP were intravenously administered: 2.0 g, 4.0 g (2×2.0 g). Each dose level was administered to all healthy volunteers. There was a washout period of at least one week between doses.
The following safety parameters were determined at the pre- and post-study examinations: • 1. Vital signs • 2. Clinical laboratory: Blood chemistry, Haematology, Coagulation, Urinalysis • 3. Adverse events (Signs and Symptoms) have been recorded in each of the two treatment periods.

[3] = Tissue distribution, bioaccumulation and pharmacokinetics following multiple dose administration of 3H-CHP in mice (Study IPSS E015); format: in vivo; conditions: multiple dose administration
Text: Example 2. A Study in Mice on the Tissue Distribution, Bioaccumulation and Pharmacokinetics in Tissues, Connective and BrainTissues Following Multiple Dose Administration of ^3H-CHP Study No. IPSS E015 (FIG. 2)
According to this invention the study has been designed and performed as follows:
From each mouse sacrificed, the following organs & tissues samples were taken:
Liver, kidney, pancreas, limbic system, spinal fluid, brain stem, cerebrum, cerebellum, cartilage, ligaments and tendons (dense or fibrous connective tissue), loose connective tissue, and reticular connective tissue (supports lymph nodes, bone marrow, and spleen)

[4] = Tissue distribution and pharmacokinetics of single dose of radiolabelled 3H-CHP in mice (Study IPSS C053); format: in vivo; conditions: for Tissues that accumulated particularly high CHP concentrations: single dose 3H-CHP; for AUC-1 in the stomach / Cmax in the stomach / Cmax in brain & pituitary gland / AUC-1 for remaining carcass as % of the totaled AUC-1 for all tissues & samples: single dose 50 μCi 3H-CHP
Text: Example 1: Tissue Distribution and Pharmacokinetic Study with CHP Study “Clinical Study in Mice on the Tissue Distribution and Pharmacokinetics of Single Dose of the Radiolabelled ^3H-CHP-Study No.: IPSS C053”—(FIG. 1). This Study has been Designed and Performed According to this Invention
1. Determination of ^3H-CHP distribution in 25 tissues, remaining carcass and whole blood over time.
2. Determination of pharmacokinetic parameters of CHP.
3. Comparison of intravenous (IV), and oral routes of administration.
^3H-CHP Labelling • CHP was labelled on the 4-prime position using tritium. • The scintillation counting technique detects the tritium atom. • Therefore the counting technique detects CHP and some metabolites which incorporate the tritium. […] They were selected using inclusion and exclusion criteria, and were therefore highly standardised.
Dosing Regimen • 48 animals were each administered 50 μCi ^3H-CHP at the start of the experiment. This was termed time zero (00:00 hrs). • 27 mice were dosed via the intravenous (IV) route. • 21 mice were dosed via the oral route. • Six (6) animals were not administered with CHP. They form two control groups of 3 mice each.
Data Collection • 3 mice were sacrificed following the SOP for anesthesia and according to the following time intervals
Sample Collection • From each sacrificed mouse, the following samples were taken: • Whole BloodEyes & Harderian GlandsKidneys & Adrenal GlandsAortaLiverLungSpleenUrinary BladderBone & Bone MarrowCaecumSmall IntestineLarge IntestineLymph Nodes (Mesenteric) Muscle, PancreasBrain & Pituitary GlandBrown FatSubcutaneous FatHeartThymousBoth TestesProstateSkinStomachThyroidSalivary GlandsRemaining CarcassUrine (collected if possible: in practise this was rare)
The remaining carcass sample consisted of the rest after removal of whole blood and the other tissues. Any material cleaned from other tissues listed above was also included. The collected remainings were homogenised before analysis.

[5] = male, human, plasma, healthy subjects, oral 4×2.0 g CHP/day
[6] = oral CHP, administration 4× daily
[7] = after oral administration of CHP 2 g-12 g

O=C(O)[C@@H]1C[C@@H](O)CN1 [THP, trans-4-hydroxy-L-proline]
Cmax [1, 5]: 9560 ng/mL
Tmax [1, 5]: 1.5 h
half-life [1, 5]: 12.4 h
MRT inf ([1]; male, human, plasma, healthy subjects, oral 4×2.0 g CHP/day, read-out: MRT (0-inf)): 19.1 h
Accumulation following oral administration ([1]; multiple oral doses of CHP): remarkable extent
Time after which a steady state was observed ([1]; multiple oral doses of CHP, 4× daily, simulation of plasma concentration-time curves): ~96 h
Css,min lower if 2.0 g of CHP was administered (versus 3.0 g) [1, 6]: 24%
Increase of AUCss,t, Css,max and Css,ave when the dose was increased from 2.0 g up to 3.0 g [1, 6]: approximately 50%
Oral clearance (average) [2, 7]: 798.42 mL/min
Volume of distribution (average) [2, 7]: 804.70 L
Correlation of Cmax and AUC(0-∞) with dose ([2]; oral CHP doses 2 g-12 g): dose linearity
MRT ([2]; male, human, blood, after oral administration of CHP 2 g-12 g, read-out: Mean residence time (MRT) (average)): 23.2 h
half-life ([2]; male, human, in vivo, after oral administration of CHP 2 g-12 g, read-out: Elimination half life (average) (converted)): 14.8 h
Tmax ([2]; male, human, plasma, after oral administration of CHP 2 g-12 g): 4.92 h

O=C(O)C1C[C@H](O)CN1 (stereo partly shown) [^3H-CHP]
Tissues with particular high levels of 3H-CHP accumulation [3]: kidneys and adrenal glands liver, pancreas loose connective tissue cartilage, reticular connective tissue, dense/fibrinous connective tissues
Tissues that accumulated particularly high CHP concentrations ([4]; intravenous application): Pancreas, lymph nodes (mesenteric), kidneys & adrenal Glands, caecum, large intestine, small intestine, spleen, liver, urinary bladder
Tissues that accumulated particularly high CHP concentrations ([4]; oral application): Pancreas, stomach, kidneys & adrenal glands, small intestine, lymph nodes (mesenteric), spleen, caecum, bone & bone marrow, large intestine, and liver
AUC-1 in the stomach ([4]; IV): 10.493 DPM/mg
Cmax in the stomach ([4]; IV): 3.269 DPM/mg
Cmax in brain & pituitary gland ([4]; IV, control 4 DPM/mg): 876 DPM/mg
AUC-1 for remaining carcass as % of the totaled AUC-1 for all tissues & samples ([4]; intravenous (IV)): 73.3%
AUC-1 for remaining carcass as % of the totaled AUC-1 for all tissues & samples ([4]; oral): 61.8%
AUC-1 in the stomach ([4]; oral): 27.297 DPM/mg
Cmax in the stomach ([4]; oral): 7.361 DPM/mg
Cmax in brain & pituitary gland ([4]; oral, control 1 DPM/mg): 419 DPM/mg
